Measurements: publication PMC12332667, “Role of Structural Modifications in Peptidomimetic Compounds as Potential Antimicrobial Agents against Staphylococcus aureus and Streptococcus pyogenes: Balancing Bioavailability, Safety, and Antimicrobial Activity” (ACS Omega, 2025)
≈ marks a conversion by molar mass, not a printed value. Where “and” joins values, the source holds several entries; their conditions need not be identical. Equal values may be shown once.

Tests used:
S. pyogenes ATCC 19615 = experiment: MIC/MBC broth microdilution, S. pyogenes; format: cell-based, Streptococcus pyogenes; details: S. pyogenes
Summary of the method: (§1)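 BHI broth microdilution (NCCLS); ~10^5 CFU/mL; 37 °C, 18 h. MIC = lowest conc., no visible growth (≥90% vs untreated). MBC = ≤3 colonies, ≥99.9% kill. Water/DMSO/EtOH solvent controls; technical triplicate ×3 biological repeats.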

E. coli ATCC 25922 = experiment: MIC/MBC broth microdilution, E. coli; format: cell-based, Escherichia coli
Summary of the method: as §1

[1] = system: immortalized human keratinocytes (HaCaT); experiment: LDH cytotoxicity test, keratinocytes; format: cell-based; details: 48 h
Summary of the method: (§2)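 Cytotoxicity as LDH release after 48 h serum-free treatment (50, 100, 150 μg/mL peptidomimetics) of 46BR.1N fibroblasts or HaCaT keratinocytes seeded at 5000 per well. Absorbance 450 nm; untreated set as 0% and Triton X-100 1% as maximal release; Mann–Whitney U test, p ≤ 0.05.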

[2] = system: immortalized human HaCaT keratinocytes; experiment: XTT cell proliferation assay, keratinocytes; format: cell-based; details: for effect on proliferation, in words: 48 and 72 h, 0.01–150 μg/mL
Summary of the method: (§3)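 Proliferation was read as XTT absorbance at 490 nm after 4 h of reagent incubation, following 48 or 72 h of peptide exposure in serum-free HG-DMEM (37 °C, 5% CO2). The 72 h arm included a half-medium change with second peptide dose at 48 h. Significance by Mann–Whitney U, p ≤ 0.05.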

[3] = Hydrophobicity by reverse-phase chromatography; format: physicochemical; details: acetonitrile content in the mobile phase at the retention time
Text: Reverse-phase chromatography was employed to assess the hydrophobicity characteristics of the peptidomimetics. Hydrophobicity was quantified by determining the acetonitrile content in the mobile phase at the retention time of a peptidyl derivative (Table S2). The least hydrophobic compound (40% acetonitrile) was A-198, which aligns with the calculations of hydrophobicity by SwissADME and pkCSM (Table ). Next in the hydrophobicity sequence were A-197, A-220, A-219, A-174, and A-221, eluting with 42.5-43.9% of acetonitrile. Then there were followed by […], and A-179, with the acetonitrile percentage of 44.8-49.8. The compounds A-176, A-20, A-152, A-134, and A-210 needed over 50% of acetonitrile to be eluted from the column.

S. cohnii c.i. = experiment: MIC/MBC broth microdilution, S. cohnii; format: cell-based, Staphylococcus cohnii
Summary of the method: as §1

fibroblasts (46BR.1N) = experiment: LDH cytotoxicity test, fibroblasts; format: cell-based; details: 48 h
Summary of the method: as §2

[4] = system: K. pneumoniae ATCC 700603; experiment: MIC/MBC broth microdilution, K. pneumoniae; format: cell-based
Summary of the method: as §1

P. aeruginosa ATCC 10145 = experiment: MIC/MBC broth microdilution, P. aeruginosa; format: cell-based
Summary of the method: as §1

P. vulgaris ATCC 6896 = experiment: MIC/MBC broth microdilution, P. vulgaris; format: cell-based, Proteus vulgaris
Summary of the method: as §1

S. schleiferi c.i. = experiment: MIC/MBC broth microdilution, S. schleiferi; format: cell-based, Staphylococcus schleiferi
Summary of the method: as §1

S. mutans c.i. = experiment: MIC/MBC broth microdilution, S. mutans; format: cell-based, Streptococcus mutans
Summary of the method: as §1

E. faecalis c.i. = experiment: MIC/MBC broth microdilution, E. faecalis; format: cell-based, Enterococcus faecalis
Summary of the method: as §1

S. aureus ATCC 43300 = experiment: MIC/MBC broth microdilution, S. aureus; format: cell-based, Staphylococcus aureus; details: S. aureus
S. intemrdius c.i. = experiment: MIC/MBC broth microdilution, S. intermedius; format: cell-based, Staphylococcus intermedius
Summary of the method: as §1

[5] = system: human dermal fibroblast cell line (46BR.1N); experiment: XTT cell proliferation assay, fibroblasts; format: cell-based; details: for effect on proliferation, in words: 48 and 72 h, 0.01–150 μg/mL
Summary of the method: as §3

[6] = up to 150 μg/mL, A-193 and A-179 after 48 h
[7] = A-196 0.01–10 μg/mL, A-219 above 0.1 μg/mL, A-213 lower concentrations

CC(C)[C@@H](CNC(=O)C(=Cc1ccccc1)c1ccccc1)NC(=O)[C@H](CCCNC(=N)N)NC(=O)[C@H](CCCNC(=N)N)NC(=O)OCc1ccccc1 [Compound A-179]
MBC (S. pyogenes ATCC 19615; H2O): 32 µg/mL (≈ 42.4 µM) | MIC (S. pyogenes ATCC 19615; H2O): 16 µg/mL (≈ 21.2 µM) | MBC (S. pyogenes ATCC 19615; water additive DMSO): 32 µg/mL (≈ 42.4 µM) | MIC (S. pyogenes ATCC 19615; water additive DMSO): 16 µg/mL (≈ 21.2 µM) | MBC (S. pyogenes ATCC 19615; water additive EtOH): 32 µg/mL (≈ 42.4 µM) | MIC (S. pyogenes ATCC 19615; water additive EtOH): 8 µg/mL (≈ 10.6 µM) | MIC (E. coli ATCC 25922; H2O): > 512 µg/mL | MIC (E. coli ATCC 25922; water additive DMSO): > 512 µg/mL | MIC (E. coli ATCC 25922; water additive EtOH): > 512 µg/mL | cytotoxicity (LDH), in words ([1]; 50-150 μg/mL): cytotoxic to keratinocytes at all concentrations | effect on proliferation, in words ([2]; XTT): negative impact | antiproliferative effect (decrease vs control) [2, 6]: ~50% | % AcCN (acetonitrile required for elution from the column) [3]: 49.8% and 44.8–49.8% | MBC (S. cohnii c.i.; H2O): 32 µg/mL (≈ 42.4 µM) | MIC (S. cohnii c.i.; H2O): 16 µg/mL (≈ 21.2 µM) | MBC (S. cohnii c.i.; water additive DMSO): 32 µg/mL (≈ 42.4 µM) | MIC (S. cohnii c.i.; water additive DMSO): 32 µg/mL (≈ 42.4 µM) | MIC (S. cohnii c.i.; water additive EtOH): 32 µg/mL (≈ 42.4 µM) | cytotoxicity (LDH), in words (fibroblasts (46BR.1N); 50-150 μg/mL): less pronounced in fibroblasts | MIC ([4]; H2O): 512 µg/mL (≈ 678 µM) | MIC ([4]; water additive DMSO): > 512 µg/mL | MIC ([4]; water additive EtOH): > 512 µg/mL | MIC (P. aeruginosa ATCC 10145; H2O): 256 µg/mL (≈ 339 µM) | MIC (P. aeruginosa ATCC 10145; water additive DMSO): > 512 µg/mL | MIC (P. aeruginosa ATCC 10145; water additive EtOH): > 512 µg/mL | MIC (P. vulgaris ATCC 6896; H2O): > 512 µg/mL | MIC (P. vulgaris ATCC 6896; water additive DMSO): > 512 µg/mL | MIC (P. vulgaris ATCC 6896; water additive EtOH): > 512 µg/mL | MBC (S. schleiferi c.i.; water additive EtOH): 256 µg/mL (≈ 339 µM) | MIC (S. mutans c.i.; H2O): > 512 µg/mL | MIC (S. mutans c.i.; water additive DMSO): > 512 µg/mL | MIC (S. mutans c.i.; water additive EtOH): > 512 µg/mL | MBC (E. faecalis c.i.; water additive DMSO): 256 µg/mL (≈ 339 µM) | MIC (E. faecalis c.i.; water additive DMSO): 256 µg/mL (≈ 339 µM) | MBC (E. faecalis c.i.; water additive EtOH): 256 µg/mL (≈ 339 µM) | MBC (S. aureus ATCC 43300; H2O): 32 µg/mL (≈ 42.4 µM) | MIC (S. aureus ATCC 43300; H2O): 32 µg/mL (≈ 42.4 µM) | MBC (S. aureus ATCC 43300; water additive DMSO): 32 µg/mL (≈ 42.4 µM) | MIC (S. aureus ATCC 43300; water additive DMSO): 16 µg/mL (≈ 21.2 µM) | MBC (S. aureus ATCC 43300; water additive EtOH): 32 µg/mL (≈ 42.4 µM) | MIC (S. aureus ATCC 43300; water additive EtOH): 32 µg/mL (≈ 42.4 µM) | MBC (S. intemrdius c.i.; H2O): 32 µg/mL (≈ 42.4 µM) | MIC (S. intemrdius c.i.; H2O): 16 µg/mL (≈ 21.2 µM) | MBC (S. intemrdius c.i.; water additive DMSO): 32 µg/mL (≈ 42.4 µM) | MIC (S. intemrdius c.i.; water additive DMSO): 16 µg/mL (≈ 21.2 µM) | MBC (S. intemrdius c.i.; water additive EtOH): 16 µg/mL (≈ 21.2 µM) | MIC (S. intemrdius c.i.; water additive EtOH): 16 µg/mL (≈ 21.2 µM) | effect on proliferation, in words ([5]; XTT): negative impact | antiproliferative effect (decrease vs control) [5, 6]: ~50%

CC[C@@H](CNC(=O)/C=C/c1ccccc1)NC(=O)[C@H](CC(C)C)NC(=O)[C@H](CCCNC(=N)N)NC(=O)OCc1ccccc1 [Compound A-213]
MBC (E. coli ATCC 25922; H2O): 256 µg/mL (≈ 412 µM) | MIC (E. coli ATCC 25922; H2O): 256 µg/mL (≈ 412 µM) | MBC (E. coli ATCC 25922; water additive DMSO): 512 µg/mL (≈ 823 µM) | MIC (E. coli ATCC 25922; water additive DMSO): 256 µg/mL (≈ 412 µM) | MBC (E. coli ATCC 25922; water additive EtOH): 256 µg/mL (≈ 412 µM) | MIC (E. coli ATCC 25922; water additive EtOH): 256 µg/mL (≈ 412 µM) | cytotoxicity (LDH) at 150 μg/mL ([1]; 150 μg/mL): ~10% | pro-proliferative effect above control [2, 7]: 20–30% | proliferation relative to control at 150 μg/mL (highest tested concentration) ([2]; XTT, 150 μg/mL): around 25% | effect on proliferation, in words ([2]; XTT): pro-proliferating effect at lower concentrations followed by an antiproliferative effect at higher concentrations | % AcCN (acetonitrile required for elution from the column) [3]: 54.6% | cytotoxicity (LDH) at 150 μg/mL (fibroblasts (46BR.1N); 150 μg/mL): ~10% | MIC ([4]; H2O): > 512 µg/mL | MIC ([4]; water additive DMSO): 512 µg/mL (≈ 823 µM) | MIC ([4]; water additive EtOH): 512 µg/mL (≈ 823 µM) | MIC (P. aeruginosa ATCC 10145; H2O): 512 µg/mL (≈ 823 µM) | MBC (P. aeruginosa ATCC 10145; water additive DMSO): 512 µg/mL (≈ 823 µM) | MIC (P. aeruginosa ATCC 10145; water additive DMSO): 256 µg/mL (≈ 412 µM) | MBC (P. aeruginosa ATCC 10145; water additive EtOH): 256 µg/mL (≈ 412 µM) | MIC (P. aeruginosa ATCC 10145; water additive EtOH): 256 µg/mL (≈ 412 µM) | MIC (P. vulgaris ATCC 6896; H2O): > 512 µg/mL | MIC (P. vulgaris ATCC 6896; water additive DMSO): > 512 µg/mL | MIC (P. vulgaris ATCC 6896; water additive EtOH): > 512 µg/mL | MBC (S. schleiferi c.i.; H2O): 32 µg/mL (≈ 51.5 µM) | MIC (S. schleiferi c.i.; H2O): 32 µg/mL (≈ 51.5 µM) | MBC (S. schleiferi c.i.; water additive DMSO): 32 µg/mL (≈ 51.5 µM) | MIC (S. schleiferi c.i.; water additive DMSO): 16 µg/mL (≈ 25.7 µM) | MBC (S. schleiferi c.i.; water additive EtOH): 32 µg/mL (≈ 51.5 µM) | MIC (S. schleiferi c.i.; water additive EtOH): 32 µg/mL (≈ 51.5 µM) | MBC (S. mutans c.i.; H2O): 8 µg/mL (≈ 12.9 µM) | MIC (S. mutans c.i.; H2O): 4 µg/mL (≈ 6.43 µM) | MBC (S. mutans c.i.; water additive DMSO): 8 µg/mL (≈ 12.9 µM) | MIC (S. mutans c.i.; water additive DMSO): 4 µg/mL (≈ 6.43 µM) | MBC (S. mutans c.i.; water additive EtOH): 8 µg/mL (≈ 12.9 µM) | MIC (S. mutans c.i.; water additive EtOH): 4 µg/mL (≈ 6.43 µM) | MBC (E. faecalis c.i.; H2O): 256 µg/mL (≈ 412 µM) | MIC (E. faecalis c.i.; H2O): 256 µg/mL (≈ 412 µM) | MBC (E. faecalis c.i.; water additive DMSO): 256 µg/mL (≈ 412 µM) | MIC (E. faecalis c.i.; water additive DMSO): 256 µg/mL (≈ 412 µM) | MBC (E. faecalis c.i.; water additive EtOH): 256 µg/mL (≈ 412 µM) | MIC (E. faecalis c.i.; water additive EtOH): 256 µg/mL (≈ 412 µM) | MIC (S. intemrdius c.i.; H2O): 32 µg/mL (≈ 51.5 µM) | MIC (S. intemrdius c.i.; water additive DMSO): 32 µg/mL (≈ 51.5 µM) | MIC (S. intemrdius c.i.; water additive EtOH): 32 µg/mL (≈ 51.5 µM) | pro-proliferative effect above control [5, 7]: 20–30% | proliferation relative to control at 150 μg/mL (highest tested concentration) ([5]; XTT, 150 μg/mL): around 25% | effect on proliferation, in words ([5]; XTT): pro-proliferating effect at lower concentrations followed by an antiproliferative effect at higher concentrations
